Test results as given in patent US12258328B2, “6-membered heteroaryl-containing aminopyridine compounds as EGFR inhibitors” (YUHAN CORPORATION, priority 2021, dated 2025).
Where two headings read alike, the source gives them in different places.

Experiments:
[1] = target: EGFR del19/C797S (Homo sapiens, UniProt P00533, C797S/DEL746-750); assay: Biochemical EGFR kinase assay (Lance Ultra TR-FRET), double mutant del19/C797S
Procedure, shortened: (§1)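 Kinase activity is measured by TR-FRET phosphopeptide detection. Compounds span 0.003 μM to 10 μM; the 1 h reaction at room temperature is quenched with EDTA, then labelled antibody (2 nM) is incubated 60 min before reading.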

[2] = target: EGFR wildtype (Homo sapiens, UniProt P00533); assay: Biochemical EGFR kinase assay (Lance Ultra TR-FRET), wildtype
Procedure, shortened: as §1

[3] = target: EGFR L858R/C797S (Homo sapiens, UniProt P00533, C797S/L858R); assay: Biochemical EGFR kinase assay (Lance Ultra TR-FRET), double mutant L858R/C797S
Procedure, shortened: as §1

[4] = target: EGFR del19/T790M/C797S (Homo sapiens, UniProt P00533, C797S/DEL746-750/T790M); assay: Biochemical EGFR kinase assay (Lance Ultra TR-FRET), triple mutant del19/T790M/C797S
Procedure, shortened: as §1

[5] = target: EGFR L858R/T790M/C797S (Homo sapiens, UniProt P00533, C797S/L858R/T790M); assay: Biochemical EGFR kinase assay (Lance Ultra TR-FRET), triple mutant L858R/T790M/C797S
Procedure, shortened: as §1

[6] = ATP at Km, read-out: IC50 del19/C797S, Km ATP
[7] = ATP at Km, read-out: IC50 WT, Km ATP
[8] = ATP at Km, read-out: IC50 del19/T790M/C797S, Km ATP
[9] = ATP at Km, read-out: IC50 L858R/T790M/C797S, Km ATP
[10] = Km ATP, read-out: IC50 del19/C797S (nM) Km ATP
[11] = Km ATP, read-out: IC50 WT (nM) Km ATP
[12] = Km ATP, read-out: IC50 L858R/C797S (nM) Km ATP
[13] = Km ATP, read-out: IC50 del19/T790M/C797S (nM) Km ATP
[14] = Km ATP, read-out: IC50 L858R/T790M/C797S (nM) Km ATP
[15] = IC50 del19/C797S (nM) 100 μM ATP, 100 μM ATP
[16] = IC50 WT (nM) 100 μM ATP, 100 μM ATP
[17] = IC50 L858R/C797S (nM) 100 μM ATP, 100 μM ATP
[18] = IC50 del19/T790M/C797S (nM) 100 μM ATP, 100 μM ATP
[19] = IC50 L858R/T790M/C797S (nM) 100 μM ATP, 100 μM ATP

EGFR L858R/T790M/C797S, sequence (P00533 25-1210 T790M/C797S/L858R): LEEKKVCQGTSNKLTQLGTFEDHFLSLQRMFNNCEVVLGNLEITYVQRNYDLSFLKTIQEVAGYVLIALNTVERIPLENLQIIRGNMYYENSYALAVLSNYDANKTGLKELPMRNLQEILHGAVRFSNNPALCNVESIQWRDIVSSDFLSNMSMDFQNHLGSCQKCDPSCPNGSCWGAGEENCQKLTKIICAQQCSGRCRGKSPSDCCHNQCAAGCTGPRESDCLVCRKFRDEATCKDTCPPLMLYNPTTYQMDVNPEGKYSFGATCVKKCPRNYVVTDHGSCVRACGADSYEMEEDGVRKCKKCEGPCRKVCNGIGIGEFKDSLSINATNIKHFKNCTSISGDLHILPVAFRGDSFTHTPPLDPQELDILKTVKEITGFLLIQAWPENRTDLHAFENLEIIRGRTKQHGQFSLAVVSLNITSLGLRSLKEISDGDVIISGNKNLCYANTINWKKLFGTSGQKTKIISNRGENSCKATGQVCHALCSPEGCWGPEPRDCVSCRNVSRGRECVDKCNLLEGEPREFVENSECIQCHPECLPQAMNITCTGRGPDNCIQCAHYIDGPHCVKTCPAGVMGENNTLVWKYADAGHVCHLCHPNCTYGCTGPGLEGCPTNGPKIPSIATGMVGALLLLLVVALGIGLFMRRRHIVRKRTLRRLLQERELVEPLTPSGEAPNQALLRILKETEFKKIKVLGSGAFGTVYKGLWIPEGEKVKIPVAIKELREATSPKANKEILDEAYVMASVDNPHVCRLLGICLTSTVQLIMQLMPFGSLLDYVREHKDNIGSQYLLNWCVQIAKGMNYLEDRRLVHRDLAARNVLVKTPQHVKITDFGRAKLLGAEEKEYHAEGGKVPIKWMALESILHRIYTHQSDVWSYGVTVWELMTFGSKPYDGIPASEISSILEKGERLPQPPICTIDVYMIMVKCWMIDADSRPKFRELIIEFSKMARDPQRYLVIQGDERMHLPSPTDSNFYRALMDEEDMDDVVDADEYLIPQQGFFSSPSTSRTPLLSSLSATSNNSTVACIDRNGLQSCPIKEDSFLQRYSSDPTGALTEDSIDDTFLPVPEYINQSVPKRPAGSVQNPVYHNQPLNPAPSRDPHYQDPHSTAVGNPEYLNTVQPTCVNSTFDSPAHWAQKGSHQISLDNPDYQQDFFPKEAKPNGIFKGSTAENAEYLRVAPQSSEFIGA
EGFR del19/T790M/C797S, sequence (P00533 with tags, fused parts or gaps DEL746-750/T790M/C797S): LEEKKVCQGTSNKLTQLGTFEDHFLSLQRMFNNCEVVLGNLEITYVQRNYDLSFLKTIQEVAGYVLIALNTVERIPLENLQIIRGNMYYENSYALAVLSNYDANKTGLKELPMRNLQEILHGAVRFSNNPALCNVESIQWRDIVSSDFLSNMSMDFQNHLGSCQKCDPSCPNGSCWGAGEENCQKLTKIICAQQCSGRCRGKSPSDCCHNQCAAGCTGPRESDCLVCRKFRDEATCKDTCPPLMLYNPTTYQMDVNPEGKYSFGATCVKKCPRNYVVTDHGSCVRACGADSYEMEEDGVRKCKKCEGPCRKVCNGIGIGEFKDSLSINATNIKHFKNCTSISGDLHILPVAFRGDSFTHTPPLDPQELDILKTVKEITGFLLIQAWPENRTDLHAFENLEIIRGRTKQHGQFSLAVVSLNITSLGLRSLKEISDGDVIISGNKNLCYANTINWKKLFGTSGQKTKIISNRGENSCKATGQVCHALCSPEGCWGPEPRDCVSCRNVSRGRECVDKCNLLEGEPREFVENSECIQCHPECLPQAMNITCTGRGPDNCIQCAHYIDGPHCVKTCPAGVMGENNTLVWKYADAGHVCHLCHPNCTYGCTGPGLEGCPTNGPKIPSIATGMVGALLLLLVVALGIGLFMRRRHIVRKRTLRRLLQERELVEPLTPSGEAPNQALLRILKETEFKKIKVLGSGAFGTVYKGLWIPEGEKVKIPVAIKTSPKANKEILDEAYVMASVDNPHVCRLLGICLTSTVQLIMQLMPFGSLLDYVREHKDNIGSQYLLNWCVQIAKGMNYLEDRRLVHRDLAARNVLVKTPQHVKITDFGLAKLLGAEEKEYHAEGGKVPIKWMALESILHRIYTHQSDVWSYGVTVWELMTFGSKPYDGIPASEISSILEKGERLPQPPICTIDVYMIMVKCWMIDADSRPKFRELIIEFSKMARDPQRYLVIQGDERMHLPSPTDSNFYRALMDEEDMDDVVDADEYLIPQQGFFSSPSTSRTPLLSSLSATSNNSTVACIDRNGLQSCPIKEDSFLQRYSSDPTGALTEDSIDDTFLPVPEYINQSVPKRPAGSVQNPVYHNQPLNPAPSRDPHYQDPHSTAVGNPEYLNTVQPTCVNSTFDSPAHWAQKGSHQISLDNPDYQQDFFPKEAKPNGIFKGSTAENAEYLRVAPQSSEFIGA
EGFR wildtype, sequence (P00533 25-1210): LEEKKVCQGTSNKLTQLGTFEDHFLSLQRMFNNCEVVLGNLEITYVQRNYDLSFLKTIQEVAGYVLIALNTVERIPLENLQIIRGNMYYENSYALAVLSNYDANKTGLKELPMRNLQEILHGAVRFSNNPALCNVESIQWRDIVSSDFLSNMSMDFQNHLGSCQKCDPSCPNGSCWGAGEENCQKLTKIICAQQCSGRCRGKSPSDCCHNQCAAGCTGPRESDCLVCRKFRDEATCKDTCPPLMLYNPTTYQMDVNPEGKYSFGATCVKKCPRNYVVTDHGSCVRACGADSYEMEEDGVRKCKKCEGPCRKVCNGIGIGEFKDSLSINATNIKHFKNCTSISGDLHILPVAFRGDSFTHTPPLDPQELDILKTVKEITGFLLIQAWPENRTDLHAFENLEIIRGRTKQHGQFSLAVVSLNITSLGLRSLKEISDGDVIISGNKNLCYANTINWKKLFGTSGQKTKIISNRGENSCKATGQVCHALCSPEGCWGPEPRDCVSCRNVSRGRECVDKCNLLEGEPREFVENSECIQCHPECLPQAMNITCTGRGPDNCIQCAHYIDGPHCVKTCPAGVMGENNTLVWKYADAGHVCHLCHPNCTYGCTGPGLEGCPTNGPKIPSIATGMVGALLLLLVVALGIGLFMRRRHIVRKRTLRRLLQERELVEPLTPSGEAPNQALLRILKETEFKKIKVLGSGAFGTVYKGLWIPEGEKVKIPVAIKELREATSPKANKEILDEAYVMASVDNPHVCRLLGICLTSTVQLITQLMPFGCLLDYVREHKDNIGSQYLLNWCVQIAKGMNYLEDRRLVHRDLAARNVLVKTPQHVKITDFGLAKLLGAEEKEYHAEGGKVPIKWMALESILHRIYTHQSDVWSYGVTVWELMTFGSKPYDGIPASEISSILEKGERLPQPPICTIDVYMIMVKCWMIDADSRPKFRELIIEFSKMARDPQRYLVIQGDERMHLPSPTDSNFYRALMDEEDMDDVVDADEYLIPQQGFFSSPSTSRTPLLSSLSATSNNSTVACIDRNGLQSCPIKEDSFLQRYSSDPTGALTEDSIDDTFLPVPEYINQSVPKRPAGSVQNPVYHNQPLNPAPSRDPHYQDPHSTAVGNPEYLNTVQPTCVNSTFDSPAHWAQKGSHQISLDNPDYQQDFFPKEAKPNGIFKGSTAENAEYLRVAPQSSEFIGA
EGFR L858R/C797S, sequence (P00533 25-1210 C797S/L858R): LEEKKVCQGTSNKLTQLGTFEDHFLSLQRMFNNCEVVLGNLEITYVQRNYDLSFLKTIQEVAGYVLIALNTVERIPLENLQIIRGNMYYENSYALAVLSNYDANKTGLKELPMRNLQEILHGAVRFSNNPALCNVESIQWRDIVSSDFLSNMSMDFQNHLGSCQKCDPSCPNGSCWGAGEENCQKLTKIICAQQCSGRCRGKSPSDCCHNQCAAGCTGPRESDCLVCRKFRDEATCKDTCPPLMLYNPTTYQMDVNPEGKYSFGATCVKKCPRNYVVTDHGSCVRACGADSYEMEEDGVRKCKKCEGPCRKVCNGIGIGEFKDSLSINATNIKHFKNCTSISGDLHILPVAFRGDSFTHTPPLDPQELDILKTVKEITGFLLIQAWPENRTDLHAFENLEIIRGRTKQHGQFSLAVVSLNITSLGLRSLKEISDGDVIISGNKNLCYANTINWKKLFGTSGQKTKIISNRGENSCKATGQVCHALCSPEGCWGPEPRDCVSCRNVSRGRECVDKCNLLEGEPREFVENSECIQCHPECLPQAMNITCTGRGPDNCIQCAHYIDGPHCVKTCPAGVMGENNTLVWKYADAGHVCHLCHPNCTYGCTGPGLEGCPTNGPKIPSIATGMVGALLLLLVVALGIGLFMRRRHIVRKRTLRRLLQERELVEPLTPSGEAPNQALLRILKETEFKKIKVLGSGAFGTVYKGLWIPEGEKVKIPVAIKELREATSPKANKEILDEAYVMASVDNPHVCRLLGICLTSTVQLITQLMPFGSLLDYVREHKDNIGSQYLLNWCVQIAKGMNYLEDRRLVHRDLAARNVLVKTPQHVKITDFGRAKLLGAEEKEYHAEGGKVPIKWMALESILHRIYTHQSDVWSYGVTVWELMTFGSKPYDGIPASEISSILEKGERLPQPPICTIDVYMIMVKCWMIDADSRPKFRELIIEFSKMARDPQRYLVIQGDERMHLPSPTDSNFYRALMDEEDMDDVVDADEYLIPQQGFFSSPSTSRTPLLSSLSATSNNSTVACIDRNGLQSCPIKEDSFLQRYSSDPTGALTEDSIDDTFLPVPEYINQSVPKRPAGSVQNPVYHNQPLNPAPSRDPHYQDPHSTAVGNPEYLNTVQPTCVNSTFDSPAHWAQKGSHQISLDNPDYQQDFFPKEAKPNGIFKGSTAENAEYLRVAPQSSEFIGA

SMILES | IC50 [1, 6] [nM] | IC50 ([1]; IC50 del19/C797S, 100 μM ATP) [nM] | IC50 [2, 7] [nM] | IC50 ([2]; IC50 WT, 100 μM ATP) [nM] | IC50 ([3]; IC50 L858R/C797S, 100 μM ATP) [nM] | IC50 [4, 8] [nM] | IC50 [5, 9] [nM] | IC50 ([3]; ATP at Km, read-out: IC50 L858R/C797S, Km ATP) [nM] | IC50 [1, 10] [nM] | IC50 [2, 11] [nM] | IC50 [3, 12] [nM] | IC50 [4, 13] [nM] | IC50 [5, 14] [nM] | IC50 [1, 15] [nM] | IC50 [2, 16] [nM] | IC50 [3, 17] [nM] | IC50 [4, 18] [nM] | IC50 [5, 19] [nM]
Cc1ccc(-c2cnc(Nc3ccnc(-c4cnn(S(=O)(=O)C5CC5)c4)n3)cc2N[C@H]2CC[C@@](C)(O)CC2)nc1F [Example 179, (1s,4s)-4-((6′-((2-(1-(Cyclopropylsulfonyl)-1H-pyrazol-4-yl)pyrimidin-4-yl)amino)-6-fluoro-5-methyl-[2,3′-bipyridin]-4′-yl)amino)-1-methylcyclohexan-1-ol] | 0.6 | 2.8 | 4.1 | > 10000 | 3.6 | 0.9 | 0.4 |  |  |  |  |  |  |  |  |  |  | 
CN1CCC(Oc2ccc(-c3cnc(Nc4ccnc(-c5cnn(S(=O)(=O)C6CC6)c5)n4)cc3N[C@H]3CC[C@@](C)(O)CC3)nn2)CC1 [Example 269, (1s,4s)-4-((2-((2-(1-(Cyclopropylsulfonyl)-1H-pyrazol-4-yl)pyrimidin-4-yl)amino)-5-(6-((1-methylpiperidin-4-yl)oxy)pyridazin-3-yl)pyridin-4-yl)amino)-1-methylcyclohexan-1-ol] | 0.4 |  | 2.6 |  |  | 0.1 | 0.1 | 0.1 |  |  |  |  |  |  |  |  |  | 
C[C@]1(O)CC[C@@H](Nc2cc(Nc3ccnc(-c4cnn(S(=O)(=O)C5CC5)c4)n3)ncc2-c2cnc(OC3CCOCC3)cn2)CC1 [Example 148, (1s,4s)-4-((2-((2-(1-(Cyclopropylsulfonyl)-1H-pyrazol-4-yl)pyrimidin-4-yl)amino)-5-(5-((tetrahydro-2H-pyran-4-yl)oxy)pyrazin-2-yl)pyridin-4-yl)amino)-1-methylcyclohexan-1-ol] |  |  |  |  |  |  |  |  | 2 | 15.1 | 1 | 0.3 | 0.3 |  |  |  |  | 
O=S(=O)(C1CC1)n1cc(-c2nccc(Nc3cc(N[C@H]4CC[C@@H](CO)CC4)c(-c4cnc(OC(F)F)cn4)cn3)n2)cn1 [Example 129, ((1s,4s)-4-((2-((2-(1-(Cyclopropylsulfonyl)-1H-pyrazol-4-yl)pyrimidin-4-yl)amino)-5-(5-(difluoromethoxy)pyrazin-2-yl)pyridin-4-yl)amino)cyclohexyl)methanol] |  |  |  |  |  |  |  |  | 12.6 | 116 | 12.9 | 1.4 | 0.5 |  |  |  |  | 
CC(C)(O)c1ccnc(-c2cnc(Nc3ccnc(-c4cnn(S(=O)(=O)C5CC5)c4)n3)cc2N[C@H]2CC[C@@](C)(O)CC2)c1 [Example 108, (1s,4s)-4-((6′-((2-(1-(Cyclopropylsulfonyl)-1H-pyrazol-4-yl)pyrimidin-4-yl)amino)-4-(2-hydroxypropan-2-yl)-[2,3′-bipyridin]-4′-yl)amino)-1-methylcyclohexan-1-ol] |  |  |  |  |  |  |  |  | 0.4 | 6.9 | 0.4 | 0.4 | 0.2 | 0.9 | 1860 | 3.6 | 0.4 | 0.2
C[C@]1(O)CC[C@@H](Nc2cc(Nc3ccnc(-c4cnn(S(=O)(=O)C5CC5)c4)n3)ncc2-c2cc(N3CCC(F)(F)CC3)ccn2)CC1 [Example 102, (1s,4s)-4-((6′-((2-(1-(Cyclopropylsulfonyl)-1H-pyrazol-4-yl)pyrimidin-4-yl)amino)-4-(4,4-difluoropiperidin-1-yl)-[2,3′-bipyridin]-4′-yl)amino)-1-methylcyclohexan-1-ol] |  |  |  |  |  |  |  |  | 4.6 | 21.3 | 8.2 | 2.8 | 0.7 | 9.1 | > 10000 | 29.9 |  | 1
CN1CCN(c2ccc(-c3cnc(Nc4ccnc(-c5cnn(S(=O)(=O)C6CC6)c5)n4)cc3N[C@H]3CC[C@@H](C(C)(C)O)CC3)nc2)CC1 [Example 84, 2-((1s,4s)-4-((6′-((2-(1-(Cyclopropylsulfonyl)-1H-pyrazol-4-yl)pyrimidin-4-yl)amino)-5-(4-methylpiperazin-1-yl)-[2,3′-bipyridin]-4′-yl)amino)cyclohexyl)propan-2-ol] |  |  |  |  |  |  |  |  | 0.4 | 0.6 | 0.2 | 0.9 | 0.3 | 0.6 | 181 | 0.5 | 0.7 | 0.5
